Data reported in paper PMC12368481, “Discovery of a Phenylalanine‐Derived Natural Compound as a Potential Dual Inhibitor of MDM2 and MDMX” (Chemmedchem, 2025).

Biological target: T1, MDMX (Homo sapiens, UniProt O15151)
T1 construct: gene MDM4
T1 sequence (O15151 1-110 limits assumed): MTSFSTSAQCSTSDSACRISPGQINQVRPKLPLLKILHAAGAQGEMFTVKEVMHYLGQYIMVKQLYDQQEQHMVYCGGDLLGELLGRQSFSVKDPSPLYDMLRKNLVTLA
Assay: SPR (Biacore T200), multicycle kinetics
Assay type: binding
Settings: read-out: MDMX / K D

COC(CCCCCCC(C)C)C(=O)N[C@@H](Cc1ccccc1)C(=O)O (stereo partly shown) [P5]
Kd: 0.593 µM
